“Also recorded” adds a separate entry of the source.
Columns and labels:
LPS induced hyperalgesia = assay: intraplantar LPS inflammatory pain, thermal hindpaw withdrawal latency; type: in vivo, rat; settings: for analgesic activity of AEPU on co-administration: 10 mg/kg dermal, co-administered with AEPU; for inflammatory pain related behavior: LPS inflammation
Experimental: (§1) Treatments and behavioral nociceptive tests. Behavioral nociceptive testing was conducted by assessing thermal hindpaw withdrawal latencies (TWL) using a commercial Hargreaves (Hargreaves et. al 1998) apparatus (IITC, Woodland Hills, Calif.), or by determining mechanical hindpaw withdrawal thresholds (MWT) using an electronic von Frey anesthesiometer (IITC, Woodland. Hills, Calif.). For DAT determination, a maximum stimulus duration of 22 s was imposed to prevent tissue damage. Following baseline measurements, rats were first treated with 200 μl of vehicle or compound-formulated cream by topical application to one hindpaw, LPS ([…] in 50 μl 0.9% NaCl) was injected into the plantar surface of the treated paw. For subcutaneous administration, compounds were injected immediately after intraplantar LPS. Animals were then placed in acrylic chambers on a glass platform maintained at a temperature of 30±1° C. for measurement or on a wire-mesh platform for MWT measurements. A probe fitted with a filament that is connected to a force transducer was applied to the plantar hind paw surface through a wire-mesh platform until eliciting a withdrawal reflex. The duration of heat application or the force (gr) necessary to elicit a withdrawal was designated as TWL and MWT. The steroidogenesis inhibitors were applied 2 hours before sEHI and LPS administration. Diabetes was induced by intravenous injection of 50 mg/kg streptozocin (STZ) in saline following baseline measurements. Diabetic animals were tested at least one week after STZ administration. Three measurements were taken from each animal at each time point and average responses were converted to percent analgesia index based on each animals' baseline response.

StAR mRNA = StAR mRNA expression in spinal cord and brain (qRT-PCR); type: in vivo, rat; settings: for StAR expression in spinal cord and brain: intrathecal, alone, within 30 minutes
Experimental: Blood samples for chemical analysis were collected by cardiac puncture under deep isoflurane anesthesia. Plasma was immediately separated by centrifuging at 4000 rpm for 10 minutes in a cold centrifuge. Rats were then decapitated under anesthesia and tissues were removed and flash frozen in liquid nitrogen. For sampling the brain after decapitation, the scalp was first removed providing accessibility to the cranial plates. A midline incision was introduced to detach the cranial plates and brain was carefully exposed by peeling the plates. The brain was removed from the skull using a spatula, immediately placed in liquid nitrogen, and stored at −80° C. The prefrontal area was removed by a coronal cut to the distal one third of the brain from the frozen tissue. The cerebellum was also removed and the brain was hemisected. […] Plasma hormone levels were quantified using RIA. For quantitative RT-PCR, standard procedures were followed.

ICER = ICER expression in spinal cord; type: in vivo, rat; settings: LPS
Experimental: Blood samples for chemical analysis were collected by cardiac puncture under deep isoflurane anesthesia. Plasma was immediately separated by centrifuging at 4000 rpm for 10 minutes in a cold centrifuge. Rats were then decapitated under anesthesia and tissues were removed and flash frozen in liquid nitrogen. For sampling the brain after decapitation, the scalp was first removed providing accessibility to the cranial plates. A midline incision was introduced to detach the cranial plates and brain was carefully exposed by peeling the plates. The brain was removed from the skull using a spatula, immediately placed in liquid nitrogen, and stored at −80° C. The prefrontal area was removed by a coronal cut to the distal one third of the brain from the frozen tissue. The cerebellum was also removed and the brain was hemisected. Saggital slices with a thickness of 2 mm and weighing 100-200 mg were cut from both hemispheres lateral to the thalamus and stored to be used for qRT-PCR or chemical analysis. Plasma hormone levels were quantified using RIA. For quantitative RT-PCR, standard procedures were followed.

TSPO = target: T1, TSPO (Rattus norvegicus, UniProt P16257); assay: [3H] PK 11195 radioligand displacement from TSPO, rat heart mitochondria; type: binding; settings: individual regioisomers compared with the mixture
T1 construct: rat heart mitochondria was isolated and incubated with; tissue CEREP (France); host or cells: rat heart mitochondria
Experimental: Binding studies. Radioligand binding studies were conducted by CEREP (France) according to standard procedures as described by LeFur. Briefly, rat heart mitochondria was isolated and incubated with [^3H] PK11195 at 30° C. in the presence of increasing concentrations of EET-me analogues or EET free acids. Reaction mixture was passed through glass wool filters washed 3 times using cold binding buffer and dried by air. Filter were than counted and IC50 values were calculated.

[1] = tested on: streptozocin induced neuropathic pain; assay: von Frey test (mechanical allodynia) in streptozocin neuropathic rats; type: in vivo, rat; settings: for neuropathic pain, von Frey test: streptozocin (50 mg/kg iv) rats, subcutaneous, dose and time response
Experimental: Male Sprague-Dawley rats weighing 250-300 grains were used. Animals were individually housed at UC Davis Animal Resource Facility under standard conditions with free access to food and water, and maintained for at least 1 week before the experiments. Pain was quantified using three tests, the hind paw withdrawal latency test, the mechanical hyperalgesia test and the mechanical allodynia test. All the experiments were performed during the daytime.
Rats were first trained to the experimental chamber in two separate sessions. On the day of the induction of neuropathy, the animals' basal response to all three tests were measured and then streptozocin (50 mg/kg) was administered intravenously. Animals were then followed over time for the development of neuropathic pain. An inhibitor of sEH was administered subcutaneously one week after the onset of pain symptoms. […] Compounds were formulated by dissolving them in ethanol and mixing with trans free oleic oil. At least six animals per group were used. The Von Frey test was conducted by stimulating the plantar surface of the rats' hind paw with a calibrated filament connected to a force transducer. As this filament is applied the amount of force exerted on the paw increases and the animal withdraws its paw when the force reaches its threshold. […] In the Randal-Selitto test a similar principle is used. The animals' hind paw is placed between a flat surface and a pointed tip of a force transducer. The pointed tip exerts force on the dorsal face of the paw. […] The two tests are complementary, but depend on the activity of different groups of nociceptors.
as §1, with “Behavioral nociceptive testing was conducted by assessing thermal hindpaw withdrawal latencies (TWL) using a commercial Hargreaves (Hargreaves et. al 1998) apparatus (IITC, Woodland Hills, Calif.), or by determining mechanical hindpaw withdrawal thresholds (MWT) using an electronic von Frey anesthesiometer (IITC, Woodland. Hills, Calif.). For DAT determination, a maximum stimulus duration of 22 s was imposed to prevent tissue damage.” left out, “Animals were then placed in acrylic chambers on a glass platform maintained at a temperature of 30±1° C. for measurement or on a wire-mesh platform for MWT measurements.” left out

COX-2 mRNA = assay: spinal COX-2 mRNA after intraplantar LPS; type: in vivo, rat; settings: spinal cord
[2] = tested on: streptozocin induced neuropathic pain; assay: mechanical hyperalgesia test (Randal-Selitto) in streptozocin neuropathic rats; type: in vivo, rat
Experimental: Male Sprague-Dawley rats weighing 250-300 grains were used. Animals were individually housed at UC Davis Animal Resource Facility under standard conditions with free access to food and water, and maintained for at least 1 week before the experiments. Pain was quantified using three tests, the hind paw withdrawal latency test, the mechanical hyperalgesia test and the mechanical allodynia test. All the experiments were performed during the daytime. Rats were first trained to the experimental chamber in two separate sessions. On the day of the induction of neuropathy, the animals' basal response to all three tests were measured and then streptozocin (50 mg/kg) was administered intravenously. Animals were then followed over time for the development of neuropathic pain. An inhibitor of sEH was administered subcutaneously one week after the onset of pain symptoms. […] Pain response was measured at 60, 120, 240 and 480 minutes after the administration of the sEHI. Compounds were formulated by dissolving them in ethanol and mixing with trans free oleic oil. At least six animals per group were used. The Von Frey test was conducted by stimulating the plantar surface of the rats' hind paw with a calibrated filament connected to a force transducer. As this filament is applied the amount of force exerted on the paw increases and the animal withdraws its paw when the force reaches its threshold. […] In the Randal-Selitto test a similar principle is used. The animals' hind paw is placed between a flat surface and a pointed tip of a force transducer. The pointed tip exerts force on the dorsal face of the paw. […] The two tests are complementary, but depend on the activity of different groups of nociceptors.

For `CCC1(c2ccc(N)cc2)CCC(=O)NC1=O` (centres unmarked) [aminoglutethimide, reference compound], the “analgesic activity of AEPU on co-administration” value (LPS induced hyperalgesia) was “completely abolished”.

For `CCOCCOCCOCCCCCNC(=O)NC12CC3CC(CC(C3)C1)C2` [AEPU, Adamantan-1-yl-3-{5-[2-(2-ethoxyethoxy)ethoxy]pentyl}urea], the “paw withdrawal latency in response to a mild heat stimulus” value (LPS induced hyperalgesia; 50 mg/kg dermally, intraplantar LPS) was “transiently increased the paw withdrawal latency”, the “inflammatory pain related behavior” value (LPS induced hyperalgesia) was “had a transient effect on pain however remained analgesic” and the “StAR message in the brain” value (StAR mRNA; compound alone) was “neither local inflammation nor AEPU alone elicited an increase”. For the same molecule, the “StAR message in the brain” value (StAR mRNA; inflamed animals treated with compound) was “two fold increase”, the “StAR mRNA in the brain” value (StAR mRNA; intrathecal with 8-Br cAMP (100 μg), 30 min) was “elicited a parallel increase in the brain” and the “StAR expression in the spinal cord” value (StAR mRNA; intrathecal with 8-Br cAMP (100 μg), 30 min, EETs 5 μg, AEPU 1 μg) was “increased the expression level of StAR in the spinal cord”. The “StAR expression in spinal cord and brain” value (StAR mRNA) was “did not change” and the “increase in ICER message” value (ICER) was “up to 3 fold”.

In the case of `CCCCCC1OC1C/C=C\C/C=C\C/C=C\CCCC(=O)OC` (centres unmarked) [14,15-EET-me], the “activity on TSPO” value (TSPO) is reported as “less potent than the mixture were active and more efficacious”.

`CCCCC/C=C\C/C=C\CC1OC1C/C=C\CCCC(=O)OC` (centres unmarked) [8,9-EET-me] was tested, and the “activity on TSPO” value (TSPO) was “completely lacked activity”.

`CC(C)(C)NC(=O)[C@H]1CC[C@H]2[C@@H]3CC[C@H]4NC(=O)C=C[C@]4(C)[C@H]3CC[C@]12C` [finasteride, reference compound] was tested, and the “analgesic activity of AEPU on co-administration” value (LPS induced hyperalgesia) was “completely abolished”.

In the case of `CC(=O)N1CCC(NC(=O)Nc2ccc(OC(F)(F)F)cc2)CC1` [TPAU], the “neuropathic pain, von Frey test” value [1] is reported as “reduced and at higher doses eliminated”, the “analgesic potency compared with morphine” value (LPS induced hyperalgesia; 10 mg/kg vs morphine 1 mg/kg) is reported as “potency strikingly comparable to that of a moderate dose of morphine” and the “inflammatory pain related behavior” value (LPS induced hyperalgesia) is reported as “particularly more effective; also recorded: substantially reduced hyperalgesia”. The “response to stimuli, motor activity” value (LPS induced hyperalgesia; treated animals) was “no reduction in response to stimuli or gross signs of loss of motor activity” and the “spinal COX-2 mRNA increase” value (COX-2 mRNA) was “particularly more effective”.

`CCCCC/C=C\C/C=C\C/C=C\CC1OC1CCCC(=O)OC` (centres unmarked) [5,6-EET-me] was tested, and the “activity on TSPO” value (TSPO) was “less potent than the mixture were active and more efficacious”.

In the case of `O=C(O)CCCCCCCCCCCNC(=O)NC12CC3CC(CC(C3)C1)C2` [AUDA, 12-(3-Adamantan-1-yl-ureido)dodecanoic acid], the “decrease in withdrawal threshold” value ([1]; moderate dose) is reported as “completely reversed the decrease in withdrawal threshold”, the “pain scores of diabetic rats” value ([1]; neuropathic pain model) is reported as “dose and time dependent improvement in pain scores” and the duration of effect ([1]; rat, in vivo) is reported as “lost its effect after four hours”. For the same molecule, the “neuropathic pain, von Frey test” value [1] was “reduced neuropathic pain in a dose and time dependant manner”, the “pain, mechanical hyperalgesia test (FIG. 3)” value ([2]; 10, 20 and 50 mg/kg) was “reduced pain in a time and dose dependant” and the “mechanical allodynia induced by diabetic neuropathy (FIG. 3 legend)” value ([2]; compound 1010 at equivalent dose) was “reversed”.

In the case of `O=C(NC12CC3CC(CC(C3)C1)C2)N[C@H]1CC[C@H](Oc2ccc(C(=O)O)cc2)CC1` (relative stereo) [t-AUCB, trans-4-[4-(3-adamantan-1-yl-ureido)-cyclohexyloxy]-benzoic acid], the “neuropathic pain, von Frey test” value [1] is reported as “reduced and at higher doses eliminated”.

In the case of `Nc1ncnc2c1nc(Br)n2[C@@H]1O[C@@H]2COP(=O)(O)O[C@H]2[C@H]1O` [8-Br cAMP, reference compound], the “StAR expression in spinal cord and brain” value (StAR mRNA) is reported as “did not change”.

Reference: patent US8399425B2, “Alleviating neuropathic pain with EETs and sEH inhibitors” (The Regents of the University of California, priority 2007, dated 2013)
